Source: patent US9359341B2, “Aldehyde derivative of substitute oxazolidinones” (WANBURY LTD., priority 2012, dated 2016)

Columns and labels:
[1] = In vitro stability in mouse plasma; format: in vitro ADME; settings: conversion to rivaroxaban seen from zero min
Description: (§1) The final concentration of the test compound in the assay is 5 micromolar. […] C. The 100 microliters of aliquot at time point was removed and diluted with ice cold acetonitrile containing IS (200.mu·L) to stop the reactions. Samples are centrifuged at 10,000 RPM for 5 minutes to precipitate proteins. Supernatants are transferred to micro centrifuge tubes and stored at −20° C. for analysis of LC/MS/MS. The percent parent remaining of the test substance is calculated as ratio of peak area at each time point to peak area ratio at zero min, multiplied by 100.
(§2) API 4000, ESI Agilent 1100 column: Gemini Nx 100 mm×4.6 mm 5.1; column temperature: 30° C.; eluent A: 0.1% formic acid in water, eluent B: acetonitrile; gradient: 0-2.5 min 95% A, 5% B; 2.5-2.6 min 5% A, 95% B; 2.6-4.2 min 95% A, 5% B; flow rate: 0.8 ml/min; ESI. Q1:464.098, Q3:144.255

[2] = In vitro stability in human plasma; format: in vitro ADME; settings: conversion to rivaroxaban seen from zero min
Description: as §1, §2

[3] = In vitro stability in rat plasma; format: in vitro ADME; settings: conversion to rivaroxaban seen from zero min
Description: as §1, §2

plasma protein [4] = assay: Plasma protein binding (rat); format: in vitro ADME
Description: (§3) A compound solution (1 mM in DMSO) (5 μL), according to the invention is added to the respective plasma matrices of rat or human or mouse (1 ml).
(§4) Add 150 ul of phosphate buffer to receiving side of the dialysis well. […] Precipitate with Acetonitrile and dilute samples prior to analysis in 1.5 ml polypropylene tubes. Remove 50 μl from the sample side of dialysis well and add 50 μl of phosphate buffer +300 μl of acetonitrile containing IS. Remove 50 μl from the buffer side of the dialysis well and add 50 μl of respective matrix plasma +300 μl of ACN. Then vortexed and centrifuged for 5 min, and supernatant is taken and injected into LCMS.
(§5) Different test concentration ranging from 0.1 μM to 20 μM are made in methanol:water (90:10). Test solutions are added to the premixed matrix containing plasma:phosphate buffer (50:50). Precipitate with 300 μl of ice cold acetonitrile containing IS, vortexes and centrifuged. Supernatant is taken and injected into LCMS. Percentage of plasma protein binding was obtained via Equation(2):% Fraction unbound=(concentration on the buffer side/concentration on the sample side)*100 Table-7

[5] = Stability in simulating intestinal fluid (SIF); format: physicochemical; settings: over 120 min
Description: (§6) On completion of incubation period, the solution is centrifuged and supernatant is taken. To the supernatant, ice cold acetonitrile containing IS is added, vortexed and injected into LCMS/MS.
(§7) API 4000, ESI Agilent 1100 column: Gemini Nx 100 mm×4.6 mm 5.μ; column temperature: 30° C.; eluent A: 0.1% formic acid in water, eluent B: acetonitrile; gradient: 0-2.5 min 95% A, 5% B; 2.5-2.6 min 5% A, 95% B; 2.6-4.2 min 95% A, 5% B; flow rate: 0.8 ml/min; ESI. Q1:464.098, Q3:144.255
(§8) Prepared 0.1 mol of citric acid and 0.2 mol of di sodium hydrogen phosphate in water. Buffer pH 2.2, 4 and 7.8 are prepared using citric acid and disodium hydrogen phosphate by adjusting the pH with 0.1N HCl or 1N NaOHpH 7.4: 8.89 g disodium hydrogen phosphate (Solution A) add to 1 liter of water, 1.5601 g sodium di-hydrogen phosphate (solution B) are made up to 1 liter with water; Solution A (19 ml) and Solution B (81 ml) are mixed. SIF/SGF: 2.38 g of SIF original powder (biorelavant media) is dissolved in 1 L of milliQ water. The pH of the solution is adjusted for SIF (7.4) and SGF (2.2) with 0.1N HCl. The ratios of the peak areas (F) at the respective time points in relation to the peak areas at the starting time are calculated
The peak area (F) is directly correlated to the amount of test compound which is quantified by the LC MS method. […]

plasma protein [6] = assay: Plasma protein binding (human); format: in vitro ADME
Description: as §3, §4, §5

CYP3A4 = CYP3A4 (Homo sapiens (Human), UniProt P08684); assay: CYP inhibition assay; format: in vitro ADME; settings: pooled human liver microsomes; extrapolated IC50 derived from 3 μM; read-out: IC50 (μM) of CYP isoforms, 3A4
Chain of CYP3A4 (P08684 whole entry, canonical isoform): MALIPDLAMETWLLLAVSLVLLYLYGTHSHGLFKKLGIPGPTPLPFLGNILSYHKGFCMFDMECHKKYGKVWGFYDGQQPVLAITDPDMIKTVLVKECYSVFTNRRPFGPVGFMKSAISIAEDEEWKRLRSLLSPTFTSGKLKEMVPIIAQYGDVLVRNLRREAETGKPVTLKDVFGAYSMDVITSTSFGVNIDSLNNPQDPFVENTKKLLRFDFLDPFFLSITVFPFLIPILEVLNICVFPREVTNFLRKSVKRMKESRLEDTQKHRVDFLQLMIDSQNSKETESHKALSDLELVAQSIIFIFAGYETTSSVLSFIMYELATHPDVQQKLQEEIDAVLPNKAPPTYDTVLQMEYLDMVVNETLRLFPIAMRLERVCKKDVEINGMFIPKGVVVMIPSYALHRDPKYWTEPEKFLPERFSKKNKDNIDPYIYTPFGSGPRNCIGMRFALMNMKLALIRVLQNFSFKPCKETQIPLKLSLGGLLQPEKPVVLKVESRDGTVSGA
Description: (§9) The ability of substances to inhibit CYP1A2, CYP2C9, CYP2D6, CYP2C19, CYP2J2 and CYP3A4 in humans was investigated with pooled human liver microsomes as enzyme source in the presence of standard substrates (see below) which form CYP-isoform-specific metabolites.
(§10) Standard incubation mixtures comprise NADPH and substrates in 100 mM phosphate buffer (pH 7.4) in a total volume of 200 μl. Test compound are dissolved in acetonitrile. Incubated with pooled human liver microsomes at 37° C. for a defined time. The reactions are stopped by adding 100 μl of acetonitrile in which a suitable internal standard is always present. Precipitated proteins are removed by centrifugation, and the supernatants analyzed by LC-MS/MS.

CYP1A2 = CYP1A2 (Homo sapiens (Human), UniProt P05177); assay: CYP inhibition assay; format: in vitro ADME; settings: pooled human liver microsomes; extrapolated IC50 derived from 3 μM; read-out: IC50 (μM) of CYP isoforms, 1A2
Chain of CYP1A2 (P05177 whole entry, canonical isoform): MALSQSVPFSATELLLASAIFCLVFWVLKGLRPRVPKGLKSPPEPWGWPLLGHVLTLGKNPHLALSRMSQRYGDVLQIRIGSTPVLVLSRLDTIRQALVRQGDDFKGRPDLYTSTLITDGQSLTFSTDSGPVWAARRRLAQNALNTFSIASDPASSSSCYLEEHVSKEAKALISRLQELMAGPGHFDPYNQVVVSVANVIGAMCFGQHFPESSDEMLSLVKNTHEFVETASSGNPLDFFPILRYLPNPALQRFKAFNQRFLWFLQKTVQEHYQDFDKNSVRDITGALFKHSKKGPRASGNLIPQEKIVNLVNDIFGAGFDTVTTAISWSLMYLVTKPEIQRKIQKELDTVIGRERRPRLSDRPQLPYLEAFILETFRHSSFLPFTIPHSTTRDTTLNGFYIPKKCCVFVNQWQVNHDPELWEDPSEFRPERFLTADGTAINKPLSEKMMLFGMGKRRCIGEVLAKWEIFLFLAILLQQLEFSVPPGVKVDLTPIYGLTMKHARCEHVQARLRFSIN
Description: as §9, §10

[7] = Stability in buffer at various pH; format: physicochemical; settings: for Analyte Peak Area, Average: Standard average 39849828
Description: as §6, §7, §8

[8] = In vitro liver microsomal stability assay (mouse); format: in vitro ADME; settings: mouse liver microsomes
Description: (§11) Liver microsomal stability assays are conducted at 1 mg per mL liver microsome protein with an NADPH in phosphate buffer (100 mM, pH 7.4). Test compounds (compound of formula B of the invention) are prepared as solutions in 20% methanol-water and added to the assay mixture (final assay concentration 1 μM) and incubated at 37° C. Aliquots (100.μ·L) are taken out at times 0, 15, and 30 minutes, and diluted with ice cold acetonitrile containing IS (200.mu·L) to stop the reactions. Samples are centrifuged at 10,000 RPM for 5 minutes to precipitate proteins. Supernatants are transferred to micro centrifuge tubes and stored at −20° C. for analysis of LC/MS/MS. The percent parent remaining of the test substance is calculated as Ratio of peak area at each time point to peak area ratio at zero min, multiplied by 100. The compound formula (B) is converted to Rivaroxaban in microsomal assay.

[9] = In vitro liver microsomal stability assay (rat); format: in vitro ADME; settings: rat liver microsomes
Description: as §11

[10] = metabolised to rivaroxaban from zero min

Question: What does the source list for `O=CN(C[C@H]1CN(c2ccc(N3CCOCC3=O)cc2)C(=O)O1)C(=O)c1ccc(Cl)s1` [Compound formula B, 5-chloro-N-formyl-N-({(5S)-2-oxo-3-[4-(3-oxomorpholin-4-yl)phenyl]-1,3-oxazolidin-5-yl}methyl)thiophene-2-carboxamide]?
Answer: Conversion: amount of test product detected [1]: min. Neglible; Conversion: amount of test product detected [2]: min. Neglible; Conversion: amount of test product detected [3]: min. Neglible; Observation: amount of test product (plasma protein [4]): Not quantificable amount; Observation: formed Rivaroxaban bound to plasma protein (plasma protein [4]): found to be moderate-High; stability at simulating intestinal conditions [5]: stable at simulating intestinal conditions; Observation: amount of test product (plasma protein [6]): Not quantificable amount; Observation: formed Rivaroxaban bound to plasma protein (plasma protein [6]): found to be High bound to; IC50 (CYP3A4): 5.7 µM; IC50 (CYP1A2): 1.4 µM; Analyte Peak Area, Average ([7]; buffer pH 2.1, 24 hr room temperature): 28315038 counts; Analyte Peak Area, Average ([7]; buffer pH 4, 24 hr room temperature): 34879190 counts; Analyte Peak Area, Average ([7]; buffer pH 7.8, 24 hr room temperature): 38907.5 counts; stability in varying pH buffer conditions ([7]; rivaroxaban formation observed by LCMS): degraded in varying pH buffer conditions; Observation (metabolism; for Test Product: of the formed rivaroxaban) [8]: shown metabolism; amount of test product detected [8, 10]: min. Neglible; Observation (metabolism; for Test Product: of the formed rivaroxaban) [9]: shown metabolism; amount of test product detected [9, 10]: min. Neglible
